SMILES strings stand for the structures. Where “and” joins values, the source holds several entries; their conditions need not be identical. Equal values may be shown once.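 Compound exposure: 48 hours, 5 concentrations, 96-well plates. The concentration for 50% growth inhibition is given as GI50. TGI: total growth inhibition.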 Where only a bound is given, the exact number is not on record here.

16 molecules from PubChem BioAssay (NCI) can be followed below.

What all share (test): NCI anticancer screen, dose series, 48 h
Experiment [1] relates to A498 renal.
Experiment [2] relates to CCRF-CEM leukemia.
Experiment [3] relates to EKVX NSCLC.
For experiment [4], the system named is NCI-H23 lung.
In experiment [5] the test system is SF-539 CNS.
The subject of experiment [6] is SK-MEL-5 melanoma.
In experiment [7] the test system is BT-549 breast.
The test system of experiment [8] is IGROV1 ovarian.
Experiment [9] has as its system MDA-MB-435.
Experiment [10] deals with NCI/ADR-RES ovarian.

`COc1ccc(CCC2NCCc3cc(OC)c(OC)cc32)cc1` (configuration not stated): the TGI in experiment [1], in experiment [2], in [3], in experiment [4], in experiment [5] and in [6] was > 100 µM each time.
Consider `COc1cccc2c1C(=O)c1c(O)c3c(c(O)c1C2=O)C[C@@](O)(/C(C)=N\O)C[C@@H]3OC1CC(N)C(O)C(C)O1` (some centres not stated), for which the TGI in experiment [1] was determined as 3.31 µM; in experiment [7] it was 5.65 µM; in experiment [2] it was 2.38 µM; in experiment [3] it was 19.5 µM; in experiment [8] it was 17.2 µM; in [4], 3.8 µM. Further, the values for the TGI in [5] and in [6] were 3.8 µM and 2.29 µM, respectively.
Consider `COc1ccc(S(=O)(=O)N/N=C(\C)CN2C(=O)c3ccccc3C2=O)cc1`, for which the TGI in experiment [1], in [2], in experiment [3], in [8], in experiment [4] and in experiment [5] was > 100 µM each time. In addition, the TGI in experiment [6] was > 100 µM.
As for `O=[N+]([O-])c1ccc(O)c2ncccc12`, the TGI was > 100 µM and 24 µM in experiment [7]; > 100 µM in experiment [2]; > 100 µM and 17.9 µM in [3]; > 100 µM and 13.8 µM in experiment [8]; > 100 µM and 15.2 µM in [9]; > 100 µM and 28.9 µM in experiment [4]. Further, in experiment [5], the TGI was > 100 µM and 20.8 µM.
As for `O=C1CCC2CCOc3ccc(O)c1c32` (configuration not stated), the TGI in experiment [1], in experiment [2], in [3], in [8], in experiment [4] and in experiment [5] was > 100 µM throughout. Besides, in experiment [6], the TGI was > 100 µM.
Regarding `Cc1ccc(N(C(=O)CC(=O)N2N=C(c3ccccc3)C(N=Nc3ccc([N+](=O)[O-])cc3)C2=O)C(=O)c2ccc(Cl)cc2)cc1` (configuration not stated), the TGI was 36.9 µM in [1]; > 30.9 µM in experiment [2]; > 100 µM in [3]; 45.9 µM in [8]; 28.2 µM in experiment [4]; 35.6 µM in [5]. The molecule further came in with a TGI in [6] of 84.8 µM.
Turning to `Cc1cccc(N2C(=O)C(=O)C(c3nc4ccccc4s3)C(=O)C2=O)c1C`, the TGI in experiment [1], in [2], in experiment [3], in experiment [8], in experiment [4] and in [5] was > 100 µM in each case. Besides, in experiment [6], the TGI was > 100 µM.
Take `COc1ccc(-c2c(C#N)c(N)nc3c2CCCc2ccc(F)cc2-3)cc1OC`: the GI50 in experiment [7] is 556 nM; in experiment [2] it was < 10.5 nM; in experiment [3], 86.1 nM; in experiment [8] it was 131 nM; in experiment [4], 487 nM; in [10], 480 nM. Further, the GI50 in experiment [5] is < 10 nM. The TGI in experiment [7] is 26.2 µM; in experiment [2], > 92.8 µM; in experiment [8], > 100 µM; in experiment [4], > 100 µM; in experiment [10], > 100 µM; in experiment [5], 0.0213 µM. Moreover, in experiment [6], the TGI is 0.483 µM.
Regarding `COC1(OC)c2ccccc2C2(O)c3ccccc3C(=O)C12` (configuration not stated), the TGI in experiment [2] is 84.5 µM; in experiment [3] it was > 100 µM; in experiment [8], 67 µM; in experiment [4], > 100 µM; in experiment [5] it was > 100 µM; in [6], 31.9 µM.
`COc1cccc(C2C(C#N)=C(N)Oc3cc(OC)ccc32)c1` (configuration not stated): the GI50 is 19.8 nM in experiment [1]; 106 nM in experiment [7]; 32.8 nM in [2]; 62.2 nM in experiment [8]; 41.5 nM in [4]; 18.4 nM in [10]. Further, the GI50 in [5] is 23.1 nM; in experiment [6], 45.5 nM. Further, the TGI in experiment [1] is 0.0709 µM; in experiment [7], 17 µM; in [2] it was > 45.7 µM; in [8], > 50.9 µM; in [4], > 33 µM; in [5], 0.0596 µM. In experiment [6], the TGI was 1.69 µM.
Turning to `C1C[OH+]CC[OH+]CC[OH+]CC[OH+]CC[OH+]CC[OH+]1.[Cl-].[Ta+5]`, the GI50 in experiment [1], in experiment [8], in experiment [4], in experiment [5] and in experiment [6] was > 100000 nM throughout. Moreover, the TGI in experiment [1], in experiment [8], in experiment [4], in experiment [5] and in experiment [6] was > 100 µM each time.
Consider `Cc1nn(C)c(=O)c2nn(-c3ccccc3)c(C)c12`, for which the TGI in experiment [1], in experiment [2], in [3], in experiment [8], in experiment [4] and in experiment [5] was > 100 µM throughout. The TGI in experiment [6] was > 100 µM.
Turning to `C=CCC(C)(C(=O)NCCC)C(=O)c1ccccc1O` (configuration not stated), the TGI in experiment [1], in [2], in experiment [8], in experiment [5] and in experiment [6] was > 100 µM throughout.
For `CC1=N/C(=C\c2cccc3ccccc23)C(=O)O1`, the TGI in [1], in experiment [2], in [3], in [8], in [4] and in experiment [5] was > 100 µM in each case. In addition, the TGI in experiment [6] is > 100 µM.
On to `O=C(/C=C/c1ccc(Cl)cc1)c1ccncc1`, for which the TGI in [1] was 88.7 µM; in experiment [2], > 100 µM; in experiment [3], > 100 µM; in experiment [8], > 100 µM; in [4] it was > 100 µM; in experiment [5], > 100 µM. Further, the TGI in [6] is > 100 µM.
Turning to `C=CCNC(=S)OCCCCCCCCCC`, the TGI in experiment [1] was determined as 33.3 µM; in experiment [2] it was 37.4 µM; in experiment [3], 39.6 µM; in experiment [8], 35.7 µM; in experiment [4] it was 37.8 µM; in experiment [5], 34 µM. For the same molecule, the TGI in experiment [6] turned out to be 30.5 µM.
